# Reference: the supplement of paper PMC10307832
# Legend:
# Experiment in all cases: relative viability (nuclei count vs DMSO), 5 days (fraction); higher = more cells survive
# [1] = system: 201T
# Outline: (§1)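 One day after seeding in 1536-well plates, lung cancer cell lines were dosed by pin tool. Dosing was either single-drug or a fixed anchor-drug dose plus five library-drug doses (not always all listed) in √10 steps. After 5 days, nuclei were stained in one fix-and-stain step and counted on 4× images, and relative viability is the nuclei count of treated wells over that of vehicle wells, given as the median of duplicate plates.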
# [2] = system: A-427
# Outline: as §1
# [3] = system: BEN
# Outline: as §1
# [4] = system: COR-L23
# Outline: as §1
# [5] = system: EKVX
# Outline: as §1
# [6] = system: EMC-BAC-2
# Outline: as §1
# [7] = system: EPLC-272H
# Outline: as §1
# [8] = system: HCC-44
# Outline: as §1
# [9] = system: HCC-827
# Outline: as §1
# [10] = system: LCLC-103H
# Outline: as §1
# [11] = system: LK-2
# Outline: as §1
# [12] = system: LXF-289
# Outline: as §1
# [13] = system: NCI-H1650
# Outline: as §1
# [14] = system: NCI-H1651
# Outline: as §1
# [15] = system: NCI-H1793
# Outline: as §1
# [16] = system: NCI-H1915
# Outline: as §1
# [17] = system: NCI-H2087
# Outline: as §1
# [18] = system: NCI-H2126
# Outline: as §1
# [19] = system: NCI-H2347
# Outline: as §1
# [20] = system: NCI-H358
# Outline: as §1
# [21] = system: NCI-H460
# Outline: as §1
# [22] = system: NCI-H596
# Outline: as §1
# [23] = system: SW 1573
# Outline: as §1
smiles,measurement,setting,value
Cc1cnc(-c2cnc(NCCNc3ccc(C#N)cn3)nc2-c2ccc(Cl)cc2Cl)[nH]1 + Nc1nc2[nH]cc(CCc3ccc(C(=O)N[C@@H](CCC(=O)O)C(=O)O)cc3)c2c(=O)[nH]1 [Pemetrexed] (partner 0.2 µM),relative viability,[1]; first compound 0.08 µM,0.316
same,relative viability,[1]; first compound 0.8 µM,0.345
same,relative viability,[1]; first compound 2.53 µM,0.301
same,relative viability,[2]; first compound 0.08 µM,0.981
same,relative viability,[2]; first compound 0.253 µM,0.901
same,relative viability,[2]; first compound 0.8 µM,0.928
same,relative viability,[2]; first compound 2.53 µM,0.927
same,relative viability,[3]; first compound 0.08 µM,0.787
same,relative viability,[3]; first compound 0.253 µM,0.751
same,relative viability,[3]; first compound 0.8 µM,0.771
same,relative viability,[3]; first compound 2.53 µM,0.802
same,relative viability,[4]; first compound 0.08 µM,0.191
same,relative viability,[4]; first compound 0.253 µM,0.19
same,relative viability,[4]; first compound 0.8 µM,0.198
same,relative viability,[4]; first compound 2.53 µM,0.185
same,relative viability,[5]; first compound 0.08 µM,0.455
same,relative viability,[5]; first compound 0.253 µM,0.358
same,relative viability,[5]; first compound 0.8 µM,0.339
same,relative viability,[6]; first compound 0.08 µM,0.419
same,relative viability,[6]; first compound 0.253 µM,0.43
same,relative viability,[6]; first compound 0.8 µM,0.393
same,relative viability,[6]; first compound 2.53 µM,0.368
same,relative viability,[7]; first compound 0.08 µM,0.388
same,relative viability,[7]; first compound 0.253 µM,0.293
same,relative viability,[7]; first compound 0.8 µM,0.344
same,relative viability,[7]; first compound 2.53 µM,0.276
same,relative viability,[8]; first compound 0.08 µM,0.633
same,relative viability,[8]; first compound 0.253 µM,0.631
same,relative viability,[8]; first compound 0.8 µM,0.643
same,relative viability,[8]; first compound 2.53 µM,0.685
same,relative viability,[9]; first compound 0.08 µM,0.27
same,relative viability,[9]; first compound 0.253 µM,0.267
same,relative viability,[9]; first compound 0.8 µM,0.245
same,relative viability,[9]; first compound 2.53 µM,0.269
same,relative viability,[10]; first compound 0.08 µM,0.49
same,relative viability,[10]; first compound 0.253 µM,0.43
same,relative viability,[10]; first compound 0.8 µM,0.453
same,relative viability,[10]; first compound 2.53 µM,0.418
same,relative viability,[11]; first compound 0.08 µM,0.242
same,relative viability,[11]; first compound 0.253 µM,0.252
same,relative viability,[11]; first compound 2.53 µM,0.253
same,relative viability,[12]; first compound 0.08 µM,0.91
same,relative viability,[12]; first compound 0.253 µM,0.818
same,relative viability,[12]; first compound 0.8 µM,0.829
same,relative viability,[12]; first compound 2.53 µM,0.962
same,relative viability,[13]; first compound 0.08 µM,0.356
same,relative viability,[13]; first compound 0.253 µM,0.361
same,relative viability,[13]; first compound 0.8 µM,0.315
same,relative viability,[13]; first compound 2.53 µM,0.289
same,relative viability,[14]; first compound 0.08 µM,0.574
same,relative viability,[14]; first compound 0.253 µM,0.493
same,relative viability,[14]; first compound 0.8 µM,0.528
same,relative viability,[14]; first compound 2.53 µM,0.537
same,relative viability,[15]; first compound 0.08 µM,1.04
same,relative viability,[15]; first compound 0.253 µM,0.839
same,relative viability,[15]; first compound 0.8 µM,0.794
same,relative viability,[15]; first compound 2.53 µM,1.14
same,relative viability,[16]; first compound 0.08 µM,0.49
same,relative viability,[16]; first compound 0.8 µM,0.438
same,relative viability,[16]; first compound 2.53 µM,0.398
same,relative viability,[17]; first compound 0.08 µM,0.714
same,relative viability,[17]; first compound 0.8 µM,0.641
same,relative viability,[17]; first compound 2.53 µM,0.511
same,relative viability,[18]; first compound 0.08 µM,0.706
same,relative viability,[18]; first compound 0.253 µM,0.642
same,relative viability,[18]; first compound 0.8 µM,0.634
same,relative viability,[18]; first compound 2.53 µM,0.618
same,relative viability,[19]; first compound 0.08 µM,0.44
same,relative viability,[19]; first compound 0.253 µM,0.42
same,relative viability,[19]; first compound 0.8 µM,0.398
same,relative viability,[19]; first compound 2.53 µM,0.431
same,relative viability,[20]; first compound 0.08 µM,0.168
same,relative viability,[20]; first compound 0.253 µM,0.182
same,relative viability,[20]; first compound 0.8 µM,0.184
same,relative viability,[20]; first compound 2.53 µM,0.16
same,relative viability,[21]; first compound 0.08 µM,0.073
same,relative viability,[21]; first compound 0.253 µM,0.0754
same,relative viability,[21]; first compound 0.8 µM,0.0676
same,relative viability,[21]; first compound 2.53 µM,0.0722
same,relative viability,[22]; first compound 0.08 µM,0.531
same,relative viability,[22]; first compound 0.253 µM,0.485
same,relative viability,[22]; first compound 0.8 µM,0.49
same,relative viability,[22]; first compound 2.53 µM,0.53
same,relative viability,[23]; first compound 0.08 µM,1.06
same,relative viability,[23]; first compound 0.253 µM,0.797
same,relative viability,[23]; first compound 0.8 µM,0.551
same,relative viability,[23]; first compound 2.53 µM,0.364
